Measurements reported in patent US20220125053A1, “Pesticidal Mixtures” (BASF SE, priority 2019, published 2022).

What was measured:
[1] = system: Qoi resistant isolate of Septoria tritici; experiment: Microtest: activity against leaf blotch on wheat caused by Septoria tritici (SEPTTR), Qoi resistant isolate; assay type: cell-based; conditions: single compound, 7 days after inoculation
From the text: (§1) The active compounds were formulated separately as a stock solution having a concentration of 10000 ppm in dimethyl sulfoxide.
(§2) 2. Activity against leaf blotch on wheat caused by Septoria tritici (SEPTTR) The stock solutions were mixed according to the ratio, pipetted onto a micro titer plate (MTP) and diluted with water to the stated concentrations. A spore suspension of a Qoi resistant isolate of Septoria tritici in an aqueous biomalt or yeast-bactopeptone-glycerine or DOB solution was then added. The plates were placed in a water vapor-saturated chamber at a temperature of 18° C. Using an absorption photometer, the MTPs were measured at 405 nm 7 days after the inoculation.
(§3) The measured parameters were compared to the growth of the active compound-free control variant (100%) and the fungus-free blank value to determine the relative growth in % of the pathogens in the respective active compounds.
(§4) These percentages were converted into efficacies.
(§5) An efficacy of 0 means that the growth level of the pathogens corresponds to that of the untreated control; an efficacy of 100 means that the pathogens were not growing.
(§6) The expected efficacies of active compound mixtures were determined using Colby's formula [R. S. Colby, “Calculating synergistic and antagonistic responses of herbicide combinations”, Weeds 15, 20-22 (1967)] and compared with the observed efficacies.

Microdochium nivale = experiment: Microtest: activity against Microdochium nivale (MONGNI); assay type: cell-based; conditions: single compound, 7 days after inoculation
Description: as §1
as §2, with “1.” for “2.”, “Microdochium nivale (MONGNI)” for “leaf blotch on wheat caused by Septoria tritici (SEPTTR)”, “Microdochium nivale” for “a Qoi resistant isolate of Septoria tritici”
as §3, §4, §5, §6

**Q.** Which Observed efficacy ([1]; 0.016 ppm) does the source give for `Cc1cccc(-n2nnn(C)c2=O)c1COc1ccn(-c2ccc(Cl)cc2)n1` [Metyltetraprol, 1-[2-[[1-(4-chlorophenyl)pyrazol-3-yl]oxymethyl]-3-methyl-phenyl]-4-methyl-tetrazol-5-one] here?
**A.** 0

**Q.** And the Observed efficacy ([1]; 0.063 ppm)?
**A.** 1

**Q.** And the Observed efficacy (Microdochium nivale; 0.016 ppm)?
**A.** 32

**Q.** `CC(C)c1ccc(Cl)cc1CN(C(=O)c1c(C(F)F)nn(C)c1F)C1CC1` [Isoflucypram, N-(5-chloro-2-isopropylbenzyl)-N-cyclopropyl-3-(difluoromethyl)-5-fluoro-1-methyl-1H-pyrazole-4-carboxamide] was tested. Which Observed efficacy ([1]; 0.004 ppm) did it give?
**A.** 0

**Q.** And the Observed efficacy ([1]; 0.016 ppm)?
**A.** 5

**Q.** And the Observed efficacy ([1]; 0.063 ppm)?
**A.** 34

**Q.** And the Observed efficacy (Microdochium nivale; 0.063 ppm)?
**A.** 40
